{"source": "paper PMC6156508", "about": "“GA-Hecate antiviral properties on HCV whole cycle represent a new antiviral class and open the door for the development of broad spectrum antivirals” (Scientific Reports, 2018)", "key": {"[1]": {"system": "HCV subgenomic replicon SGR-Feo-JFH-1 (genotype 2a)", "assay": "HCV subgenomic replicon replication, luciferase assay (genotype 2a)", "type": "cell-based, hepatitis C virus", "text": "Figure 2 Hecate and its derivative-peptide effects on subgenomic HCV genotype 2a replication and hepatotoxicity. (A) Hecate. (B) Lys- Hecate. (C) GA-Hecate. (D) GA2-Hecate. (E) Acetyl-Hecate. (F) Glu-Hecate. Luciferase assays report HCV replication and MTT assays report the viability of Huh-7.5 cells harboring SGR-JFH-1 Feo under peptide treatment. Water was used as a negative control of virus replication inhibition and cell death (Control (−)), and Cyclosporine A was used as a positive control for virus replication inhibition (Control (+)). Red dotted lines represent the arbitrary threshold of 80% cell viability, and blue dotted lines represent the maximum inhibition presented by Hecate at the maximum safe concentration. Bars represent triplicates of the three independent assays. ***P < 0.01 vs control (−).\nCell lines harboring subgenomic or genomic replicons were seeded at 5 × 10^3 cells /well on 96-well plates and the compounds were added 24 h post-seeding, in a concentration range between 2.5–20 μM. After 48 h of treatment, the cells were disrupted with 30 μL of passive lysis buffer (Promega, Madison, WI, USA), and luciferase substrate (Promega, Madison, WI, USA) was automatically added to each sample. Luciferase activity was measured using a luminometer (FLUOstar Omega/BMG LABTECH, Offenburg, BW, DE). The same assays were performed in Huh-7.5 cell lines harboring SGR-JFH1 Feo, S52/SG-neo or FL-J6/JFH-50C19Rluc2AUbi. Cyclosporine A (Sigma-Aldrich) at 1 μM was used as positive control of viral replication inhibition and dH2O as negative control.\nGA-Hecate toxicity and viral inhibition profile in 24, 48 and 72h post-treatment in […]\nGA-Hecate toxicity and viral inhibition capacity were evaluated at 24, 48 and 72h post-treatment. Tested concentrations were 1.25; 2.5; 5; 10; 20; and 40 µM. At the end of every incubation, cells were stained using MTT as previously described. Similarly, at every time point, treated cells were lysed using PLB and summited to Luminescence analysis as previously described. […]"}, "[2]": {"assay": "Permeabilization of LUVs, carboxyfluorescein release (lipid droplet mimetic)", "conditions": "POPC:Cholesterol 9:1", "text": "(§1) Figure 8 Permeabilization of LUVs. (A) Percentage of carboxyfluorescein release in POPC:POPS (9:1) Post addition of LUVs at different concentrations of Hecate and GA-Hecate. (B) Percentage of carboxyfluorescein release results in POPC:Cholesterol (9:1) LUVs after the addition of different concentrations of Hecate and GA-Hecate. The bars indicate SD.\n(§2) Phosphatidylcholine:Cholesterol (POPC:Cholesterol - 9:1; m:m) and phosphatidylcholine:phosphatidylserine (POPC:POPS - 9:1; m:m) vesicles, which mimic lipid droplets and the virus envelope, respectively, were prepared at a concentration of 15 mmol·L^−1. Each mixture was submitted to lipid solubilization in chloroform/methanol (4:1; v:v) and subsequent evaporation by nitrogen gas flow, resulting in the formation of a lipid film. The product evaporated using a vacuum procedure for complete removal of the solvents and then a solution containing the fluorophore carboxyfluorescein (CF; 50 mM) was added. The mixture was warmed up to 60 °C, sonicated and agitated for equal periods for 10 min to allow for the formation of vesicles encapsulated with CF. Following this, the mixture was processed in an extruder machine (Avanti Polar Lipids) to obtain large unilamellar vesicles. The obtained solution was then applied to a size exclusion column with Sephadex G20 resin for separation of the unencapsulated CF. […]"}, "[3]": {"assay": "Permeabilization of LUVs, carboxyfluorescein release (viral envelope/cell membrane mimetic)", "conditions": "POPC:POPS 9:1", "text": "as §1, §2"}, "[4]": {"system": "J6/JFH-1-infected Huh-7.5 cells", "assay": "Necrosis analysis (propidium iodide staining)", "type": "cell-based, human", "description": "(§3) Apoptosis and Necrosis analysis\n(§4) The ability of GA-Hecate inducing cell death by necrosis and apoptosis was assessed in 48 and 72h post-treatment (p.t) at concentrations: 1.25; 2.5; 5; 10; 20 and 40 μM. For necrosis evaluation, cells were stained using Propidium Iodide at […], which was incubated with the cells 15 minutes prior fixation. Subsequently, cells were fixed using paraformaldehyde 4% in PBS (PFA 4%) for 15 minutes and nuclei stained using DAPI 1 μg/mL for 5 minutes. For apoptosis evaluation, cells were fixed using PFA 4% during 15 minutes, permeabilized using Triton X- 100 (Sigma) 0.1% in PBS and stained using anti-Active Caspase 3 antibody (host: Rabbit) (1:200 in BSA 1% in PBS) (Abcam 13847) for 2h. Then cells were rinsed using PBS and stained using anti-rabbit AlexaFluor 594 (1:500 in BSA 1% PBS) (Thermo Scientific A21207) during 2h. Nuclei were stained using DAPI for 5 minutes. For both assays, cells were counted in 5 randomly chosen fields in duplicate. […]\nFigure S2. Cell death mechanisms triggered by GA-Hecate 48h post-treatment in […]\nJ6/JFH-1- infected Huh-7.5 cells. […]\nB) Necrosis assessment.\nNecrotic cells were stained using Propidium iodide […], which is able to cross only damaged membranes and reaches the nucleus. PI is represented in red and cell nuclei were counterstained using DAPI (blue). Bars represents the average of 5 fields in duplicate. Ns: non statistically significant. *** Pvalue< 0.001vs 0.00 µM […]\nFigure S3. Cell death mechanisms triggered by GA-Hecate 72h post-treatment in […]"}, "[5]": {"system": "J6/JFH-1-infected Huh-7.5 cells", "assay": "Apoptosis analysis (active caspase-3 staining)", "type": "cell-based, human", "conditions": "1.25-40 μM; 48 and 72 h p.t.", "description": "as §3, §4\nFigure S2. Cell death mechanisms triggered by GA-Hecate 48h post-treatment in J6/JFH-1- infected Huh-7.5 cells. A) Apoptosis activation triggered by GA-Hecate was measured by Active Caspase-3 in treated cells. Caspase is artificially represented in green and nuclei were stained using DAPI 1µg/mL (blue). B) Necrosis assessment. […]"}, "[6]": {"conditions": "peptide 0.1 μM, 1% Triton = 100%, once in triplicate"}}, "note": "Like-named read-outs stand apart in the source and are kept apart here. Where a SMILES comes first, the peptide text is derived from it. The star is where a group is joined. Galloyl = O=C(c1cc(O)c(O)c(O)c1)*", "data": [{"smiles": "CC(C)C[C@H](NC(=O)[C@H](C)NC(=O)[C@H](CCCCN)NC(=O)[C@H](CCCCN)NC(=O)[C@H](CC(C)C)NC(=O)[C@H](C)NC(=O)[C@H](CCCCN)NC(=O)[C@H](CCCCN)NC(=O)[C@H](CC(C)C)NC(=O)[C@H](CCCCN)NC(=O)[C@H](CCCCN)NC(=O)[C@H](CC(C)C)NC(=O)[C@H](C)NC(=O)[C@H](CCCCN)NC(=O)[C@H](CCCCN)NC(=O)[C@H](CC(C)C)NC(=O)[C@H](C)NC(=O)[C@H](CCCCN)NC(=O)[C@H](CC(C)C)NC(=O)[C@H](C)NC(=O)[C@H](CC(C)C)NC(=O)[C@H](C)NC(=O)[C@H](Cc1ccccc1)NC(=O)c1cc(O)c(O)c(O)c1)C(N)=O", "note": "[GA-Hecate] (Galloyl-FALALKALKKALKKLKKALKKAL-NH2)", "values": [{"measurement": "inhibition of viral replication", "setting": "[1]; 1.25 µM, 72 h", "value": "about 50%"}, {"measurement": "SI (selectivity index), ratio CC50/EC50", "setting": "[1]; 48 h, genotype 2a replicon", "value": 3.13}, {"measurement": "SI 72 h post-treatment", "setting": "[1]; 72 h", "value": 5}, {"measurement": "EC50", "setting": "[1]; Huh-7.5 harbouring SGR-Feo-JFH-1 genotype 2a, 48 h treatment, 2.5-20 μM, luciferase, triplicate in three independent assays, read-out: EC50 (50% effective concentration for HCV)", "value": 11.2, "unit": "µM"}, {"measurement": "EC50", "setting": "[1]; SGR-Feo JFH-1, 72 h, 1.25-40 µM, read-out: EC50 72 h post-treatment (IC50 in the supplement)", "value": 3.8, "unit": "µM"}, {"measurement": "inhibition of HCV replication at the maximum safe concentration", "setting": "[1]; genotype 2a replicon, 48 h, at each peptide's maximum safe concentration (Hecate 10 μM; Lys-, Glu-, Acetyl-Hecate 5 μM)", "value": "approximately 80%"}, {"measurement": "permeabilization effect relative to Hecate (fold higher)", "setting": "[2]", "value": "approximately 2 fold"}, {"measurement": "permeabilization of LUVs (carboxyfluorescein release)", "setting": "[2]; [6]", "value": "approximately 70%"}, {"measurement": "interaction capacity relative to Hecate (fold lower)", "setting": "[3]", "value": "2- to 3 fold"}, {"measurement": "permeabilization of LUVs (carboxyfluorescein release)", "setting": "[3]; [6]", "value": "~20", "unit": "%"}, {"measurement": "necrosis", "setting": "[4]; 20 μM, over the time (48 and 72 h)", "value": "about 20%"}, {"measurement": "necrosis", "setting": "[4]; 40 μM, 48h p.t., propidium iodide", "value": 50, "unit": "%"}, {"measurement": "necrosis", "setting": "[4]; 40 μM, 72h p.t., propidium iodide", "value": 10, "unit": "%"}, {"measurement": "apoptosis induction (active caspase-3)", "setting": "[5]", "value": "no significate apoptosis induction in any tested time point or concentration"}]}]}
